This is an account of results in patent US20210085703A1, “Compositions and Methods for Preventing or Treating Nephrolithiasis” (SP Nutraceuticals, Inc., priority 2017, published 2021).

Where two headings read alike, the source gives them in different places.

As a reminder, the IC50 is the concentration that gives 50% inhibition.

Data set [1] can be described thus: In vitro patient-urine based analysis of arbutin and calcium oxalate interactions (birefringence). Details: species or system human. The following applies: 1 mM arbutin, pH7/37° C., 24 hours. As to the method: 50 μl of recurrent calcium oxalate stone forming patient urine and healthy urine samples were combined with 45 μl of 20 mM 4-(2-hydroxyethyl)-1-piperazineethanesulfonic acid (HEPES) buffer (pH 7-8). 5 μl of 20 mM arbutin was added to each solution to form a 1 mM final concentration of the drug. Immediately after addition of the drug, 5 μl of each sample was spotted on a glass slide and birefringence data was imaged on confocal microscope. Each sample was incubated at 37° C. for 24 hours. 5 μl of the sample was identically collected and reimaged. The percent area of birefringence was data analysed as described above. This experiment was repeated in sodium acetate/acetic acid buffer at pH of 4 to observe the efficacy of arbutin in acidic environments. Reduction of percentage stone reduction was analysed using one way ANOVA. Control experiments were conducted using Quick Fix plus synthetic urine from Spectrum labs Cincinnati, Ohio, USA.

For data set [2] the following is noted: cited from earlier work.
The conditions of data set [3]: mouse; cited from earlier work.
Data set [4] relates to HEK293 cells. In words: Cell viability of HEK cells under oxalate conditions with arbutin. The class given is cell-based, human. As to the method:
FIG. 6a) Confocal fluorescence images of HEK293 cells stained with CellTracker Red to label the cell surface and Hoechst to label the nuclei. HEK293 cells were treated with 20 μM sodium oxalate for 30 mins. Birefringence signal was observed within HEK293 cells (white signal). FIG. 6b) Activity of LDH released from HEK293 cells after 30 min incubation with oxalate in the presence or absence of arbutin. FIG. 6c) Cell viability in arbutin treated HEK293 and PC3MLN4 cells over a 3 day period. Green line represents control normalized to 100% at that same timepoint. *** denotes p<0.05, two way ANOVA; Scheffe a correction.
To assess the cytotoxity of sodium oxalate and arbutin, human embryonic kidney epithelial cells (HEK293; ATCC® CRL-1573™), were cultured in 6-well plate containing 18 mm diameter glass coverslips to 50% confluence. […] The treated media was then removed and stored at 4° C. for further analysis. Cells were washed with Cl-free buffer and stained with 20 μM Cell tracker red CMTPX Dye (ThermoFisher Scientific) for 15 mins. Cells were triple washed with Cl-buffer and coverslips were mounted with ProLong® Gold Antifade Mountant with DAPI (ThermoFisher Scientific) without permeabilizing in preparation for confocal microscopy. Samples were imaged using a Nikon A1R+ confocal microscope (1.2 au) with a 20× dry or 60× oil-immersion lens and presented using NIS Elements software (Nikon).

Data set [5] in a line: Preliminary NMR studies of arbutin in acidic conditions. The note with it: low pH, in solution. The class given is physicochemical. The source says: Arbutin has been described to readily degrade into the split components D-glucose and HQ (and conjugates) in acidic environments, an enteric coated tablet vehicle could potentially be utilised to bypass hydrolysis by stomach acids and improve oral bioavailability.

In data set [6] the test system is calcium oxalate stone burden in D. melanogaster fed patient urine. Put plainly: Patient derived urine based calcium oxalate stone induction in D. melanogaster. It is filed as in vivo, Drosophila melanogaster. The protocol:
In addition, effect of arbutin on patient derived urine based calcium oxalate stone induction in D. melanogaster was assessed. Urine samples were collected from recurrent calcium oxalate stone forming patients (n=10 patients) and centrifuged at 2500 rpm. One milliter aliquots of supernatant were prepared and stored at −80° C. for further analysis. Ten milliters of standard medium was prepared and thoroughly mixed with 1mL of patient urine, this was separated into two individual narrow vials (5 mL per vial). Approximately 20 newly eclosed flies were added to each vial. A glass coverslip (18×18 mm) was suspended from the cotton vial plug to collect fecal matter. […] Stone burden on each coverslip was quantified via the aforementioned birefringence assay and results were expressed as mean±standard error of mean (SEM). Percentage stone burden were analyzed using one way analysis of variance (ANOVA), (Prism 6, GraphPad Software, Inc., San Diego, Calif., USA) (FIG. 3e).
D. melanogaster incubated in this patient urine based model generated calculi in the same manner as with fly food supplemented with sodium oxalate. […] Various pH's were evaluated in order to recapitulate the pH in human urine at the kidney and bladder (pH 4-6) with a greater reduction in calculi formation observed at pH 7-8 (FIG. 3f, * denotes p<0.05, two-way ANOVA, Scheffe a correction).

For data set [7] the following is noted: rat; cited from earlier work.
For data set [8] the following is noted: in vitro or in vivo studies; cited from earlier work.
The subject of data set [9] is calcium oxalate stone formation in D. melanogaster. Put plainly: Dose response relationship of arbutin and calcium oxalate stone formation (fecal excreta and dissected Malpighian tubules). It is filed as in vivo, Drosophila melanogaster. The protocol: To quantify calcium oxalate calculi via D. melanogaster excreta birefringence assay, approximately 20 newly eclosed flies were added to each of 15 vials containing either of the lithogenic diets or standard food medium as a control. Stone forming diets were prepared according to the method discussed above. A glass coverslip (18×18 mm) was suspended from the cotton tube plug to allow for the collection of fecal matter. Following a 14-day incubation period, the coverslip was extracted from each tube and each coverslip was directly imaged by confocal microscopy under polarized light. Control experiments performed in a similar fashion with standard food media. The percent area of birefringence for each coverslip was individually analyzed and quantified using NIH ImageJ software (Particle Analysis function). In order to measure dose response relationship of arbutin and calcium oxalate stone formation, thirty milliliters of 0.5% (w/v) sodium oxalate media was prepared with […] arbutin. A 10-fold serial dilution was performed to obtain 15 ml of media per dilution. Each dilution was divided into 3 narrow fly vials to yield triplicates. Approximately 20 newly eclosed flies were added to each vial with a glass coverslip (18×18mm) suspended from the cotton via plug to collect fecal matter. After a 14-day incubation period, each coverslip was extracted and stone burden was quantified as described above to observe the dose-response relationship between arbutin concentration and percentage area of birefringence.

For data set [10], the system named is HEK293 cells. Put plainly: Cytotoxicity assay (LDH release) of sodium oxalate and arbutin on human kidney epithelial cells. The class given is cell-based. The following applies: arbutin 1 mM final with oxalate, 30 min incubation. The protocol:
To assess the cytotoxity of sodium oxalate and arbutin, human embryonic kidney epithelial cells (HEK293; ATCC® CRL-1573™), were cultured in 6-well plate containing 18 mm diameter glass coverslips to 50% confluence. Following aspiration of culture medium, the cells were incubated in a chloride-free solution containing 130 mM Potassium Gluconate, 5 mM Glucose, and 20 mM HEPES (pH 7.4) and 20 μM sodium oxalate for 30 minutes. The treated media was then removed and stored at 4° C. for further analysis. Cells were washed with Cl-free buffer and stained with 20 μM Cell tracker red CMTPX Dye (ThermoFisher Scientific) for 15 mins. Cells were triple washed with Cl-buffer and coverslips were mounted with ProLong® Gold Antifade Mountant with DAPI (ThermoFisher Scientific) without permeabilizing in preparation for confocal microscopy. Samples were imaged using a Nikon A1R+ confocal microscope (1.2 au) with a 20× dry or 60× oil-immersion lens and presented using NIS Elements software (Nikon).
The cytotoxicity of HEK293 cells in sodium oxalate media with or without arbutin was determined by quantifying […] (LDH) content liberated by damaged cells using Cytotoxicity Detection KitPLUS (LDH) (Roche) following the manufacturers instructions. Absorbance readings were taken at 492 nm using BioTek PowerWave HT Microplate Spectrophotometer.

Data set [11] deals with calcium oxalate calculi deposition in fecal excreta of D. melanogaster. Put plainly: Drug library screening by D. melanogaster fecal excreta birefringence assay. It is filed as in vivo, Drosophila melanogaster. The following applies: 20 μM candidate compound in fly media with 0.5% (w/v) sodium oxalate; duplicates. The protocol: To quantify calcium oxalate calculi via D. melanogaster excreta birefringence assay, approximately 20 newly eclosed flies were added to each of 15 vials containing either of the lithogenic diets or standard food medium as a control. Stone forming diets were prepared according to the method discussed above. A glass coverslip (18×18 mm) was suspended from the cotton tube plug to allow for the collection of fecal matter. Following a 14-day incubation period, the coverslip was extracted from each tube and each coverslip was directly imaged by confocal microscopy under polarized light. Control experiments performed in a similar fashion with standard food media. The percent area of birefringence for each coverslip was individually analyzed and quantified using NIH ImageJ software (Particle Analysis function). […] The percentage area of birefringence was quantified and compared birefringence data from control experiments with separately prepared 0.5% sodium oxalate media with no addition of candidate compounds. […] After 7 days of incubation and ingestion of drug candidates, viability of flies was quantitated and all coverslips containing fecal excreta were analyzed for birefringence signal (FIG. 2d).

For the compound `OCC1OC(Oc2ccc(O)cc2)C(O)C(O)C1O` [arbutin, hydroquinone β-D-glucopyranoside], in data set [1], the “difference in birefringence events in control, healthy urine samples” value is on record as “not significant”. For the same compound, the “birefringence events in nephrolithiasis patient urine samples” value in [1] (n=3) is on record as “significant reduction in birefringence events”. For the same compound, the “administered arbutin dose retrieved in the urine as HQ conjugates” value in data set [2] (human, 4 hrs following an oral dose) is listed as “approximately 70%”. Moreover, the “absorption from the GI tract” value in [2] (oral) is recorded as “heavily absorbed from the GI tract”. In addition, the “acute and chronic toxicity by oral dosing” value in data set [3] is “low risk of acute and chronic toxicity”; in [7], “low risk of acute and chronic toxicity”. The “cell viability compared to arbutin treatment alone” value with HEK293 cells [4] (arbutin 1 mM final with oxalate, HEK cells) is reported as “no impact”. For the same compound, the “effect on oxalate induced loss of cell viability” value with HEK293 cells [4] (arbutin 1 mM final, HEK cells under 0.1% calcium oxalate conditions) was “ameliorated this effect”. Further, the “stability in acidic conditions (NMR)” value in data set [5] was “stable”. For the same compound, the “stone burden via fecal excreta assay in comparison with citrate” value in data set [6] (1 mM final concentration in fly media with patient urine, regardless of pH) is on record as “significant decrease in stone burden”. In addition, in data set [6] (1 mM in fly media with patient urine, various pHs), the “pH with greater reduction in calculi formation” value is 7-8 pH. For the same compound, the genotoxic effects result in data set [8] is given as “No genotoxic effects”. Also, the “calculi content in MTs” value in data set [9] (32 μM and 512 μM arbutin treatment) is on record as “decreases in calculi content in MTs”. Besides, the “arbutin concentration at which calculi content in fecal excreta significantly decreased” value in [9] (0.5% (w/v) sodium oxalate media, 14-day incubation) is more than 64 µM. For the same compound, the IC50 in data set [9] (Drosophila melanogaster, 336 h, 0.5% (w/v) sodium oxalate media, 14-day incubation, read-out: calculated IC50, calculi content deposited in fecal excreta) was 40 µM. Also, in data set [9] (arbutin at 1 mM in fly media+0.05% sodium oxalate, controls fly media+0.5% oxalate±DMSO), the “calculi deposits in dissected MTs compared to controls” value is listed as “near abrogation of calculi deposits”. In addition, in data set [9] (fly media supplemented with sodium oxalate (0.5%)), the “lowest concentration with anti-lithogenic abilities” value was determined as 64 µM. Further, the “LDH activity compared to arbutin treatment alone” value in the data set on HEK293 cells [10] is reported as “no impact”. Besides, the “anti-lithogenic activity in library screen (calculi deposition in fecal excreta)” value in [11] was “consistently exhibited anti-lithogenic activity”.
